Like-named read-outs stand apart in the source and are kept apart here.
Key:
[1] = Acute toxicity on mice (oral LD50); conditions: mouse, in vivo, 7 days observation, maximal dose 1000 mg/kg
Protocol: Mice belonging to the NMRI strain (body weight 20-25 g, both male and female) were used, 6 to 10 animals for each dose. The test compound was administered orally in a volume of 20 ml/kg. The applied maximal dose was 1000 mg/kg. […] The mice were kept in a plastic cage at room temperature. The animals got tap water and standard mouse fodder ad libitum. The toxicity data were determined by the aid of the method of Litchfield and Wilcoxon [Litchfield, J. T., Wilcoxon, F. W.: J. Pharmacol. Exp. Ther., 96, 99 (1949)].

shocks tolerated = assay: Anxiolytic effect (Vogel et al.); assay type: in vivo, rat (male Wistar); conditions: ip, 2 h; rat, intraperitoneal, two hours before testing; read-out: Anxiolytic effect MED
Protocol: The anxiolytic effect was tested by using the method of Vogel et al. Male Wistar rats of 160-180 g bodyweight were kept free of food and drinking water for 24 and 48 hours, respectively. Test and carrier substances were administered intraperitoneally two hours before testing. Animals within the experimental chamber were provided with drinking water through an inserted tube. After the animals' each twenty lapping for water the device emitted a 2 mA intensity electric shock through the drinking tube. During 5 minutes the shocks tolerated by the animals in order to quench their thirst were counted. The effect of treatment was expressed as the % increase of the tolerated shocks. The minimum effective dose (MED) was determined for each test compound [Voqel, J. R., Beer, B., Clody, D. E.: Psychopharmacologia (Berl.) 21, 1 (1971)].

[2] = tested on: learned conditioned avoidance reflex; assay: Antipsychotic effect: inhibition of conditioned avoidance reflex (shuttle box); assay type: in vivo, rat (male Wistar); conditions: 1 h, read-out: Conditioned reflex ID50
Protocol: The antipsychotic (neuroleptic) effect was measured by the inhibition of the learned conditioned avoidance reflex. The male Wistar rats used for the study were of 120-150 g bodyweight at the commencement of learning. […] In response to a suitable warning stimulus, in order to avoid the punishing (unconditioned) stimulus, animals within the box passed through the gate from one part over the other. The warning, i.e. conditioned stimulus (CS), a white light (1 Hz) blinking for 15 seconds, was applied at the place of the actual animal existence. The unconditioned stimulus (US), in form of 0.6 mA intensity electric shock, was randomly applied to the paw during the last 5 seconds of the conditioned stimulus. Animal's movement during the CS and US from one part of the box over the other, was defined as avoidance and escape responses, respectively. Both responses ceased the actual stimulus and stopped the trial. The time elapsed until the next trial (intertrial interval, ITI) was 15 seconds. While one experiment was carried out daily, an experiment consisted of 80 trials. Learning efficiency was expressed as percentage of the successful to the total avoidances. […] Dosing was carried out once a week, one hour before the measurement in the shuttle box.

catalepsy = assay: Catalepsy; assay type: in vivo, rat (Wistar); conditions: rat; for Catalepsy MED: scored from 60 minutes after dosing, four hours
Protocol: The extrapyramidal syndrome, the most important side effect limiting the application of the neuroleptic drugs in man, can be produced in experimental animals in the form of catalepsy. Our experiments in 150-160 g Wistar rats were performed according to Morpurgo. The catalepsy, appearing 60 minutes after dosing, was scored as follows. Both forelegs of each animal were put for 10 seconds onto a rubber stopper of 3 cm height, then for additional 10 seconds onto a same stopper of 9 cm height. […] The procedure was repeated in each 30 minutes during four hours, obtaining scores proportional to the degree of the catalepsy. Results were used to calculate the minimum effective dose [MED, the lowest dose resulting statistically significant alteration, c.f.: Morpurgo, C.: Arch. Int.

hexobarbital narcosis = assay: Hexobarbital narcosis potentiating effect on mice; assay type: in vivo, mouse; conditions: oral; for ED50: Mus musculus, 1 hour before hexobarbital 40 mg/kg i.v., sleeping time >2.5 times control, read-out: ED50 hexobarbital narcosis potentiation
Protocol: The hexobarbital narcosis potentiating effect was examined on mice. Groups consisting of 6 animals were used for each dose. The animals were treated orally with the test compound, whereby sleeping was induced 1 hour later by administering a 40 mg/kg i.v. dose of hexobarbital both to the test and control groups. […] ED50 values were calculated from the thus-transformed data [Kaergaard Nielsen C. et al., Arch. Int. Pharmacodyn. 2, 170 (1967)].

nervus ischiadicus = assay: Local analgesic effect (Truant d'Amato); assay type: in vivo; conditions: 0.2 ml injected around nervus ischiadicus
Protocol: The test was carried out according to the method of Truant d'Amato. 0.2 ml of test material was injected around the nervus ischiadicus in the middle of femur with a needle of 1 cm length. The criterion of analgesic effect was the lack of the motoric control of foot muscles. The duration of effect was registered and the 50 percentile effective concentration (EC50) was calculated on the basis of the dose-effect curve. Lidocain was used as reference substance Truant d'Amato, A. P., Wiedling, S.: Acta Chir. Scand., 116, 351 (1958)].

[3] = tested on: experimental coronary insufficiency; assay: Antianginal effect (glanduitrine-induced coronary insufficiency, Nieschultz); assay type: in vivo, rat (male); conditions: rat, glanduitrine 4 NE/kg i.v., T-wave; for inhibition in vivo at 2 mg/kg: Rat2, iv, read-out: Inhibition in a dose of 2 mg/kg
Protocol: The test was carried out on male rats weighing 180-220 g. The animals were narcotized with the aid of chloralose-urethane. ECG was registered by means of needle electrodes in standard II output. Antianginal effect was tested according to the method of Nieschultz. Experimental coronary insufficiency was induced by administering glanduitrine (4 NE/kg i.v.).

pentetrazole spasm = assay: Anticonvulsive activity: pentetrazole spasm inhibiting test; assay type: in vivo, mouse (NMRI); conditions: Mus musculus; mice, oral, 1 hour before pentetrazole 125 mg/kg i.p.; read-out: Inhibition of pentetrazole spasm, ED50
Protocol: The pentetrazole spasm inhibiting test was performed according to the modified method of Benziger and Hans. Groups of mice consisting of 6 animals each, belonging to the NMRI strain (body weight: 20-25 g), were treated orally with the compound to be tested and the vehicle without active agent, respectively. I hour after the treatment a dosage of 125 mg/kg of pentetrazole was administered to each animal, intraperitoneally, and the tonic spasm of the lower limb extensor was recorded [Benziger, R., Hans, D.: Arch. Int. Pharmacodyn., 167, 245 (1967)].
The ED50 values were determined according to the method of Litchfield and Wilcoxon.

spontaneous motility = assay: Spontaneous motility inhibiting activity (Dews equipment); assay type: in vivo; conditions: Mus musculus, 0.5 h; oral, beam interruptions within 30 minutes; read-out: Motility inhibiting activity ID50
Protocol: The spontaneous motility inhibiting activity was examined according to the method of Borsy et al. Groups consisting of 3 mice each were treated orally with different doses of the compounds to be tested, then the test animals were placed in a Dews equipment. In this equipment the number of interruptions of infrared beam within 30 minutes was counted. […] [Borsy, J., Csanyi, E., Lazar, I.: Arch. Int.. Pharmacodyn. 124, 1 (1960)].

[4] = tested on: acetic acid writhing reactions; assay: Analgesic effect (acetic acid writhing, Newbould); assay type: in vivo, mouse (NMRI); conditions: Mus musculus, 1 h; mice, 0.75% acetic acid one hour after treatment; read-out: Analgesic effect ID50
Protocol: The characteristic "writhing reactions" were counted for a period of 5 minutes, starting from the fifth minute after challenge. […] Each group of animals consisted of at least 10 mice. […]

Structure (SMILES): CNC1=Nc2ccc(Cl)cc2C(c2ccccc2)=[N+]([O-])C1 [Chlordiazepoxide, reference compound]
- LD50 at 168 h [1]: 650 mg/kg
- minimal effective dose (shocks tolerated): 2.5 mg/kg

Structure (SMILES): CN(C)CCCN1c2ccccc2Sc2ccc(Cl)cc21 [Chlorpromazine, reference compound]
- LD50 at 168 h [1]: 315 mg/kg
- ED50 ([2]; Rattus norvegicus): 13.2 mg/kg
- Therapeutic index (Catalepsy MED / Conditioned Reflex ID50) (catalepsy): 1.5
- Catalepsy MED (catalepsy): 20 mg/kg

Structure (SMILES): CN(C)CCON=C1CCc2c1ccc1ccccc21 [Example 1, 3-[2-(N,N-Dimethylamino)-ethoxyimino]-2,3-dihydro-1H-benz[e]indene]
- LD50 at 168 h [1]: 820 mg/kg
- effect observed in the given dose, hexobarbital narcosis potentiation (hexobarbital narcosis; dose 200 mg/kg): 100%

Structure (SMILES): c1ccc2c3c(ccc2c1)C(=NOCCN1CCCC1)CC3 [Example 7, 3-[2-(N-Pyrpolidinyl)-ethoxyimino]-2,3-dihydro-1H-benz[e]indene]
- LD50 at 168 h [1]: 700 mg/kg
- Local analgesic effect EC50 (nervus ischiadicus): 0.20%

Structure (SMILES): c1ccc2c3c(ccc2c1)C(=NOCCN1CCCCC1)CC3 [Example 8, 3-[2-(N-Piperidinyl)-ethoxyimlno]-2,3-dihydro-1H-benz[e]indene]
- LD50 at 168 h [1]: > 1000 mg/kg
- effect observed in the given dose, hexobarbital narcosis potentiation (hexobarbital narcosis; dose 100 mg/kg): 67%
- inhibition in vivo at 2 mg/kg [3]: 56%

Structure (SMILES): c1ccc2c3c(ccc2c1)C(=NOCCCN1CCCCC1)CC3 [Example 9, 3-[3-(N-Piperidinyl)-propoxyimino]-2,3-dihydro-1H-benz[e]indene]
- LD50 at 168 h [1]: 320 mg/kg
- Local analgesic effect EC50 (nervus ischiadicus): 0.20%

Structure (SMILES): c1ccc2c3c(ccc2c1)C(=NOCCN1CCOCC1)CC3 [Example 11, 3-[2-(N-Morpholinoethoxyimino)]-2,3-dihydro-1H-benz[e]indene]
- LD50 at 168 h [1]: > 1000 mg/kg
- ED50 (pentetrazole spasm): 84 mg/kg
- inhibition in vivo at 2 mg/kg [3]: 54%

Structure (SMILES): Clc1cccc(N2CCN(CCCON=C3CCc4c3ccc3ccccc43)CC2)c1 [Example 12, 3-{3-[4-(3-Chlorophenyl)-1-piperazinyl]-propoxyimino}-2,3-dihydro-1H-benz[e]indene]
- LD50 at 168 h [1]: > 1000 mg/kg
- effect observed in the given dose, hexobarbital narcosis potentiation (hexobarbital narcosis; dose 200 mg/kg): 83%
- ED50 (spontaneous motility): ~100 mg/kg
- ED50 (pentetrazole spasm): 30 mg/kg
- inhibition in vivo at 2 mg/kg [3]: 56%

Structure (SMILES): OCCN1CCN(CC(O)CON=C2CCc3c2ccc2ccccc32)CC1 (stereo not drawn) [Example 18, 3-{3-[4-(2-Hydroxyethyl)-1-piperazinyl]-2-hydroxypropoxyimino}-2,3-dihydro-1H-benz[e]indene]
- LD50 at 168 h [1]: > 1000 mg/kg
- inhibition in vivo at 2 mg/kg [3]: 59%

Structure (SMILES): COc1ccccc1N1CCN(CC(O)CON=C2CCc3c2ccc2ccccc32)CC1 (stereo not drawn) [Example 19, 3-{3-[4-(2-Methoxyphenyl)-1-piperazinyl]-2-hydroxypropoxyimino}-2,3-dihydro-1H-benz[e]indene]
- LD50 at 168 h [1]: > 1000 mg/kg
- ED50 (hexobarbital narcosis): 67 mg/kg
- ED50 (spontaneous motility): 43 mg/kg
- ED50 [4]: 65 mg/kg

Structure (SMILES): O=C(NC1CCCCC1)ON=C1CCc2c1ccc1ccccc21 [Example 22, 3-(O-Cyclohexylcarbamoyl)-oxime-2,3-dihydro-1H-benz[e]indene]
- LD50 at 168 h [1]: > 1000 mg/kg
- inhibition in vivo at 2 mg/kg [3]: 59%

Structure (SMILES): CCN(CC)CC(=O)Nc1c(C)cccc1C [Lidocain, reference compound]
- Local analgesic effect EC50 (nervus ischiadicus): 0.19%

Structure (SMILES): CCCC(C)(COC(N)=O)COC(N)=O [Meprobamate, reference compound]
- LD50 at 168 h [1]: 1350 mg/kg
- ED50 (hexobarbital narcosis): 260 mg/kg
- ED50 (spontaneous motility): 232 mg/kg
- minimal effective dose (shocks tolerated): 25 mg/kg

Structure (SMILES): CC(Cc1ccccc1)NCCC(c1ccccc1)c1ccccc1 (stereo not drawn) [Prenylamine, reference compound]
- inhibition in vivo at 2 mg/kg [3]: 41%
- ED50 ([3]; iv): 6.6 mg/kg

Structure (SMILES): CSc1ccc2c(c1)N(CCC1CCCCN1C)c1ccccc1S2 (stereo not drawn) [Thioridazine]
- ED50 ([2]; rat, dosing one hour before measurement): 108 mg/kg
- Therapeutic index (Catalepsy MED / Conditioned Reflex ID50) (catalepsy): 0.7
- Catalepsy MED (catalepsy): 80 mg/kg

Structure (SMILES): CN1C(=O)OC(C)(C)C1=O [Trimethadione, reference compound]
- ED50 (pentetrazole spasm): 400 mg/kg

Reference: patent publication US5439940A, “Benz[e]indene derivatives” (priority 1992, dated 1995)
